Measurements published in US9127015B2, “Tricyclopyrazole derivatives” (NERVIANO MEDICAL SCIENCES S.R.L., priority 2009, dated 2015).
Values joined by “and” are separate entries in the source; they are usually repeats but may differ in a detail not shown here. Equal entries are not always repeated.

What was measured:
Assay in all cases: Kinase inhibition assay, IC50 (Table A)
Type in all cases: biochemical
ALK = ALK (Homo sapiens, UniProt Q9UM73); settings: Enzyme ALK
Experimental: (§1) The inhibiting activity of putative kinase inhibitors and the potency of selected compounds is determined through a method of assay based on the use of the Kinase-Glo® Luminescent Kinase Assay (commercially available from Promega corporation and described in Koresawa, M. and Okabe, T. (2004) High-throughput screening with quantitation of ATP consumption: A universal non-radioisotope, homogeneous assay for protein kinase. Assay Drug Dev. Technol. 2, 153-60).
As example herein are reported the assay conditions used for testing the compounds of formula (I) against ALKtide YFF APCo kinase; • ATP concentration: 1 μM • Enzyme concentration: 100 nM • Reaction buffer: Hepes 50 mM pH 7.5, MgCl2 5 mM, MnCl2 1 mM, DTT 1 mM, Na3VO4 3 uM, 0.2 mg/ml BSA. • Assay procedure: add 5 ul compound of formula (I) (3×), add 5 μl ATP/S mix (3×) in buffer 1×; add 5 μl enzyme in buffer 2×+3×BSA; for the blank, add 5 μl buffer 2×+3×BSA without enzyme. After 90 minutes of incubation, add 15 μl/well of Kinase-Glo reagent. After 60-90 minutes of incubation to stabilize the luminescent signal, the plates are read on a ViuwLux instrument.
(§2) The inhibitory activity of putative kinase inhibitors and the potency of selected compounds were also determined using a trans-phosphorylation assay.
(§3) Specific peptide or protein substrates are trans-phosphorylated by their specific ser-thr or tyr kinase in the presence of ATP traced with ^33P-γ-ATP, and in the presence of their own optimal buffer and cofactors. At the end of the phosphorylation reaction, more than 98% unlabeled ATP and radioactive ATP is captured by an excess of the ion exchange dowex resin; the resin then settles down to the bottom of the reaction plate by gravity. Supernatant is subsequently withdrawn and transferred into a counting plate, then evaluated by β-counting.
Reaction conditions are target (enzyme) dependent and thus undergo individual adaptations. Also the buffer conditions may vary depending on the kinase of interest. […]

ABL = ABL (Homo sapiens, UniProt P00519); settings: Enzyme ABL
Chain of ABL (P00519 whole entry): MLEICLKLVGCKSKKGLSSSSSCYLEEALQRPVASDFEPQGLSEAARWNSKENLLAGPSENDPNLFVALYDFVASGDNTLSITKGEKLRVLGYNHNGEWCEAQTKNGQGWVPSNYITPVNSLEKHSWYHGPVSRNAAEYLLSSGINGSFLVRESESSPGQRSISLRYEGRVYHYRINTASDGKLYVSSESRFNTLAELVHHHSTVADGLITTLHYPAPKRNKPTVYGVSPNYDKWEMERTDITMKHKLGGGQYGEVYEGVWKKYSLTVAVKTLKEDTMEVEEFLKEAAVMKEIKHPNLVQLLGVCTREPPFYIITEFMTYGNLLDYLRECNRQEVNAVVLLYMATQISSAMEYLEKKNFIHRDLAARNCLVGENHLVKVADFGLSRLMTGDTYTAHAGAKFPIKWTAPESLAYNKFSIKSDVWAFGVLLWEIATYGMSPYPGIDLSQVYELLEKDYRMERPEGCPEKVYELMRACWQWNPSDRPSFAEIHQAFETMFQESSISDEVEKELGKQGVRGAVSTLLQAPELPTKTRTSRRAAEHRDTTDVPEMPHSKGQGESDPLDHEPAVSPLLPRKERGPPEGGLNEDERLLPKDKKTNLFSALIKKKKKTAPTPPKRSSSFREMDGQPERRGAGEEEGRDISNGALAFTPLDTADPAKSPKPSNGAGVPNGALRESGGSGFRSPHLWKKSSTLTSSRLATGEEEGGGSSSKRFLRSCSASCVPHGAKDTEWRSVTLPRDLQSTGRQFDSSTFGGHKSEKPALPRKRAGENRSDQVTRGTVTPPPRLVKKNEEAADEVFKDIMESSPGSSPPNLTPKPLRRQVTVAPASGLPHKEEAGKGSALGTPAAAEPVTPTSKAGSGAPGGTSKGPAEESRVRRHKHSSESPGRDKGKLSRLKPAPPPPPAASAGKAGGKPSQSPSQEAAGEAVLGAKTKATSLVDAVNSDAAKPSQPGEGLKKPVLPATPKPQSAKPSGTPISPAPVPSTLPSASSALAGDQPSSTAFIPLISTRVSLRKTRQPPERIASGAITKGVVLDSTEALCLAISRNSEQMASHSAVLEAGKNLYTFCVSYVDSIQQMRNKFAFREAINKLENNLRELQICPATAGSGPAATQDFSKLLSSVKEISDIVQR
Experimental: as §1, §2, §3
(§4) Reaction conditions are target (enzyme) dependent and thus undergo individual adaptations. Also the buffer conditions may vary depending on the kinase of interest. The assay can be used with virtually any kinase and substrate combination and is suitable for all type of protein kinases, such as ABL, ACK1, AKT1, ALK, AUR1, AUR2, BRK, BUB1, CDC7/DBF4, CDK21CYCA, CHK1, CK2, EEF2K, EGFR1, EphA2, EphB4, ERK2, FAK, FGFR1, FLT3, GSK3beta, Haspin, IGFR1, IKK2, IR, JAK1, JAK2, JAK3, KIT, LCK, LYN, MAPKAPK2, MELK, MET, MNK2, MPSI, MST4, NEK6, NIM1, P38alpha, PAK-4, PDGFR, PDK1, PERK, PIM1, PIM2, PKAalpha, PKCbeta, PLK1, RET, ROS1, SULU1, Syk, TLK2, TRKA, TYK, VEGFR2, VEGFR3, ZAP70.

ACK1 = ACK1 (Homo sapiens, UniProt Q07912); settings: Enzyme ACK1
Experimental: as §1, §2, §3, §4

BRK = BRK (Homo sapiens, UniProt Q13882); settings: Enzyme BRK
Experimental: as §1, §2, §3, §4

KIT = KIT (Homo sapiens, UniProt P10721); settings: Enzyme KIT
Chain of KIT (P10721 26-976): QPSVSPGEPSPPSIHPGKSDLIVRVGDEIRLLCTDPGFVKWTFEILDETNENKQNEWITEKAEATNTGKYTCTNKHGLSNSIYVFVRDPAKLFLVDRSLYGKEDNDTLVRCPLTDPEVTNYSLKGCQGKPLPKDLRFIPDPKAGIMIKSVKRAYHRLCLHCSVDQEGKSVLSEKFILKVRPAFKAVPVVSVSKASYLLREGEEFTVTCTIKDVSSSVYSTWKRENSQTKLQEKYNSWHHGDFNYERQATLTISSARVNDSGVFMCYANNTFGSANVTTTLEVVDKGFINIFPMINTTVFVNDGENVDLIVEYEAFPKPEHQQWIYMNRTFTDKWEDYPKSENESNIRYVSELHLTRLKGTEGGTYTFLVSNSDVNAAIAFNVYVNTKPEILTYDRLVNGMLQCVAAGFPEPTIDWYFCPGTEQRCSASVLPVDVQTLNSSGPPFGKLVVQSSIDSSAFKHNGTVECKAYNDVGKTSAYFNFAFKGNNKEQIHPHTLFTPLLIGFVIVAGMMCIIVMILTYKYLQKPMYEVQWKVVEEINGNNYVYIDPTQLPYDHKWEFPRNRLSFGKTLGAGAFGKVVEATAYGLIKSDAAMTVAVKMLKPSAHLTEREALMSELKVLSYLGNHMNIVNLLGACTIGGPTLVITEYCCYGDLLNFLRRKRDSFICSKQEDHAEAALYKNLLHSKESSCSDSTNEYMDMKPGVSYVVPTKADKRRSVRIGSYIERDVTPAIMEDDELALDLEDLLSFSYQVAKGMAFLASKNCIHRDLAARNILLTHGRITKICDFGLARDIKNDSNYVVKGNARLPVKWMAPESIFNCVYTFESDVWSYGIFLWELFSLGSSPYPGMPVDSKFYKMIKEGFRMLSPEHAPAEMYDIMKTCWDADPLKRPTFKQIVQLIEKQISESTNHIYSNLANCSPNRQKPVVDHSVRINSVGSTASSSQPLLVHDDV
Experimental: as §1, §2, §3, §4

LCK = LCK (Homo sapiens, UniProt P06239); settings: Enzyme LCK
Chain of LCK (P06239 whole entry): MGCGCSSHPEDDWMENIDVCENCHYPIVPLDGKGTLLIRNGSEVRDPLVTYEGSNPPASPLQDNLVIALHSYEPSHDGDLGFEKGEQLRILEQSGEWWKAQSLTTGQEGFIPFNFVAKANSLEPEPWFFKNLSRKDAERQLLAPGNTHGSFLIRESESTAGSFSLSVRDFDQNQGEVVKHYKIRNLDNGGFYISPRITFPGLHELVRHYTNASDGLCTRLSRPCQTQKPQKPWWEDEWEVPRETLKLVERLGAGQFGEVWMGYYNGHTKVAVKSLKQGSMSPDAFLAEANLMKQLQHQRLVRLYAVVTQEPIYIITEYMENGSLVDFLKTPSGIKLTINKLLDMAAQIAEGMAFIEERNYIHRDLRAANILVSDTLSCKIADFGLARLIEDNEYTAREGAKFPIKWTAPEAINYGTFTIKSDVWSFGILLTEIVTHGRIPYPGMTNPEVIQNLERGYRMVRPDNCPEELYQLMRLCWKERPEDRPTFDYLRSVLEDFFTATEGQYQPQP
Experimental: as §1, §2, §3, §4

VEGFR3 = VEGFR3 (Homo sapiens, UniProt P35916); settings: Enzyme VEGFR3
Experimental: as §1, §2, §3, §4

MELK = MELK (Homo sapiens, UniProt Q14680); settings: Enzyme MELK
Chain of MELK (Q14680 whole entry): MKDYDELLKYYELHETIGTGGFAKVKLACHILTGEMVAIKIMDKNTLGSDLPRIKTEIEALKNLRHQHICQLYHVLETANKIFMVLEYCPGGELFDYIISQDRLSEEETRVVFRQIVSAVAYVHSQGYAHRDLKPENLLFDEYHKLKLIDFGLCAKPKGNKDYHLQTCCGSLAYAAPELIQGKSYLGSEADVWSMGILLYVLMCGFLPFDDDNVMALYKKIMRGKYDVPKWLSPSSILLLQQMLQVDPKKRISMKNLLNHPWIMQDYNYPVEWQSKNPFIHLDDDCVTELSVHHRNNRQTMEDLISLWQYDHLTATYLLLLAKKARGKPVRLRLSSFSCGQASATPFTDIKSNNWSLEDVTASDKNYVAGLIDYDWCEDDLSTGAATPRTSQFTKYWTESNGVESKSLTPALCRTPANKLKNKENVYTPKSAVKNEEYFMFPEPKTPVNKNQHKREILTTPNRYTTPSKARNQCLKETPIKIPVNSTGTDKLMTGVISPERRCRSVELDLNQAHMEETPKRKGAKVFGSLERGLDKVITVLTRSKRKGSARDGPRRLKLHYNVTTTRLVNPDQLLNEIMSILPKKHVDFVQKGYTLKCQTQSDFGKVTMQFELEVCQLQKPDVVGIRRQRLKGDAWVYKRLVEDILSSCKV
Experimental: as §1, §2, §3, §4

Syk = Syk (Homo sapiens, UniProt P43405); settings: Enzyme Syk
Experimental: as §1, §2, §3, §4

ZAP70 = target: T1, ZAP70 (Homo sapiens, UniProt P43403); settings: Enzyme ZAP70
T1 sequence (P43403 1-619): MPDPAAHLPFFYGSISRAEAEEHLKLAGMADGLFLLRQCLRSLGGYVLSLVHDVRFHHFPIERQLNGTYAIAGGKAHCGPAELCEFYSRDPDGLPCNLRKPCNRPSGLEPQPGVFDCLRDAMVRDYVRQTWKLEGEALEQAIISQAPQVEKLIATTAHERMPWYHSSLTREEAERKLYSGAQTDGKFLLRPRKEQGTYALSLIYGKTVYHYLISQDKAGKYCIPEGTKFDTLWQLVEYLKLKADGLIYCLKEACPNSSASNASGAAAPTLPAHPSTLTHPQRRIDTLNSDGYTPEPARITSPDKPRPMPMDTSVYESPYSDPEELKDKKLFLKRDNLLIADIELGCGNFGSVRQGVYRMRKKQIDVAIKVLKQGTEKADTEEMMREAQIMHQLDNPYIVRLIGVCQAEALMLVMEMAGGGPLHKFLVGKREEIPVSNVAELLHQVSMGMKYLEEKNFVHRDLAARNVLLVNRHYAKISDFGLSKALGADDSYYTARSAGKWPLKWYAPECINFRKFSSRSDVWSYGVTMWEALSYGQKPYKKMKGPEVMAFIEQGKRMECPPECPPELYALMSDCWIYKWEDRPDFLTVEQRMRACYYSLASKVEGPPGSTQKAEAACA
Experimental: as §1, §2, §3, §4

LYN = LYN (Homo sapiens, UniProt P07948); settings: Enzyme LYN
Experimental: as §1, §2, §3, §4

FGFR1 = FGFR1 (Homo sapiens, UniProt P11362); settings: Enzyme FGFR1
Experimental: as §1, §2, §3, §4

PKCbeta = PKCbeta (Homo sapiens, UniProt P05771); settings: Enzyme PKCbeta
Experimental: as §1, §2, §3, §4

EGFR1 = EGFR1 (Homo sapiens, UniProt P00533); settings: Enzyme EGFR1
Experimental: as §1, §2, §3, §4

Chain of ALK (Q9UM73 19-1620): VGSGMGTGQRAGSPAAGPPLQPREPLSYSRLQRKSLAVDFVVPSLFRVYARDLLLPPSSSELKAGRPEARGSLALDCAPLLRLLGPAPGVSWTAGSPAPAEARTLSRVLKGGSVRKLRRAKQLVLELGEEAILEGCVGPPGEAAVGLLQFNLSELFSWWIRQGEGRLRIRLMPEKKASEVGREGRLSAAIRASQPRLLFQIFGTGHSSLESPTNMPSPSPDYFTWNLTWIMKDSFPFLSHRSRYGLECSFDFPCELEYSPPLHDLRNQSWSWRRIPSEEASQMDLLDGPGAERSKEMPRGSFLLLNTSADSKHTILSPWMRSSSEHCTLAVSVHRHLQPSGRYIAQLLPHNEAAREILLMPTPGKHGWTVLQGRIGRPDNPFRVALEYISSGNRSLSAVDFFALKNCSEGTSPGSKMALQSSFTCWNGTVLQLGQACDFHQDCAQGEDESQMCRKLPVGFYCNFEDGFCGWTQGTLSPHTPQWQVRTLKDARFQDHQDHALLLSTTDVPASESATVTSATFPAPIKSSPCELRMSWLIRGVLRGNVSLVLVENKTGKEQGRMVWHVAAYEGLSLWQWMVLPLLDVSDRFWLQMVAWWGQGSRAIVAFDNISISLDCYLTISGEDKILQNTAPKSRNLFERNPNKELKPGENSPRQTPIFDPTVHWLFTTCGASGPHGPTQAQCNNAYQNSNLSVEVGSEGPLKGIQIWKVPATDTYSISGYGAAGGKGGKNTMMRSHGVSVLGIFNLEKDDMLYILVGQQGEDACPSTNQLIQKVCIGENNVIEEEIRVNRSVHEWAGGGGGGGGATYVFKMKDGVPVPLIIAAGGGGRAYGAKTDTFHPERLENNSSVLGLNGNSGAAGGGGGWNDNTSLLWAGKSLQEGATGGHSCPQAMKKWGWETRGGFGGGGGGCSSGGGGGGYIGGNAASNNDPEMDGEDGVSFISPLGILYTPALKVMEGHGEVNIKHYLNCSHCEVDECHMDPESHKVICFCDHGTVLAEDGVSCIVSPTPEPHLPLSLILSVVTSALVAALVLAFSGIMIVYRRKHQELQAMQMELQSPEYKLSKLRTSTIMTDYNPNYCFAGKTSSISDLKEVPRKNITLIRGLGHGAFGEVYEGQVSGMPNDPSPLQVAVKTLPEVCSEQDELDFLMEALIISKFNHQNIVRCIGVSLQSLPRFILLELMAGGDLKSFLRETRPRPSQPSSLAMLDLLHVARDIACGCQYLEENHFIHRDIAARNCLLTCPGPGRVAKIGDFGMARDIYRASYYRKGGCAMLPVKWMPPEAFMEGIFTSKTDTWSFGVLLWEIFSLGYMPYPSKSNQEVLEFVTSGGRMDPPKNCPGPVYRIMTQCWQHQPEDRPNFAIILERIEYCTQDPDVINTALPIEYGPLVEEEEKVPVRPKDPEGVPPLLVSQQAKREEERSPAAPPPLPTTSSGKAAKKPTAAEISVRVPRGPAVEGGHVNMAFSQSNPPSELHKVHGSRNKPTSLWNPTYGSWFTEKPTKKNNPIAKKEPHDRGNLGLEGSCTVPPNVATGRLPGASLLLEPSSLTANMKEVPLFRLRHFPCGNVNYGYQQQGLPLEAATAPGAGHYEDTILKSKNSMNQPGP

Row | Compound | IC50 (ALK) | IC50 (ABL) | IC50 (ACK1) | IC50 (BRK) | IC50 (KIT) | IC50 (LCK) | IC50 (MELK) | IC50 (Syk) | IC50 (ZAP70) | other results
1 | O=C(Nc1n[nH]c2c1CCn1cc(C(=O)N3CCC(N4CCCCC4)CC3)cc1-2)c1ccccc1Cl [Example A5-M1-B34] | 5.81 µM | 820 nM | 360 nM | 0.86 µM | 4.13 µM | 3.99 µM | – | – | – | IC50 (VEGFR3): 4.94 µM
2 | CC(C)(C)C(=O)Nc1n[nH]c2c1CCCn1cc(C(=O)N3CCC(N4CCCCC4)CC3)cc1-2 [Example A33-M2-B34] | – | – | 1440 nM | – | – | – | 1230 nM | 480 nM | 720 nM | –
3 | Cc1ccc(C(=O)Nc2n[nH]c3c2CCn2cc(C(=O)N4CCCC4)cc2-3)c(C)c1 [Example A35-M1-B8, 2,4-dimethyl-N-[8-(pyrrolidin-1-ylcarbonyl)-4,5-dihydro-1H-pyrazolo[4,3-g]indolizin-3-yl]benzamide] | – | 3500 nM | 490 nM and 300 nM | – | 3.52 µM | – | – | – | – | IC50 (LYN): 2130 nM
4 | Cc1ccc(C(=O)Nc2n[nH]c3c2CCCn2cc(C(=O)N4CCCC4)cc2-3)cc1F [Example A30-M2-B8] | – | – | – | – | – | – | 2570 nM | 2100 nM | 590 nM | –
5 | O=C(NCc1ccncc1)c1cc2n(c1)CCCc1c(NC(=O)c3ccccc3)n[nH]c1-2 [Example A1-M2-B25] | – | – | – | – | – | – | – | – | 1560 nM | –
6 | Cc1ccc(C(=O)Nc2n[nH]c3c2CCn2cc(C(=O)N4CCC(N5CCCCC5)CC4)cc2-3)c(C)c1 [Example A35-M1-B34] | 4.91 µM | 4310 nM | 1080 nM and 1580 nM | 4.35 µM | – | 3.5 µM | – | – | – | IC50 (FGFR1): 5.76 µM; IC50 (PKCbeta): 4.17 µM; IC50 (VEGFR3): 3.98 µM
7 | O=C(NCCN1CCCC1)c1cc2n(c1)CCc1c(NC(=O)c3ccccc3Cl)n[nH]c1-2 [Example A5-M1-B43] | 3.4 µM | 540 nM | 1010 nM | 4.68 µM | 1.31 µM | 0.59 µM | – | – | – | IC50 (EGFR1): 7.87 µM; IC50 (FGFR1): 7.27 µM
8 | CCS(=O)(=O)Nc1n[nH]c2c1CCCn1cc(C(=O)NCCOC)cc1-2 [Example A42-M2-B33] | – | – | – | – | – | – | – | 3150 nM | 1830 nM | –
9 | O=C(Nc1n[nH]c2c1CCCn1cc(C(=O)NC3CCCC3)cc1-2)c1cccnc1 [Example A32-M2-B28] | – | – | – | – | – | – | 3090 nM | 1630 nM | 800 nM | –
10 | CCN1CCN(C(=O)c2cc3n(c2)CCCc2c(NC(=O)c4cc(C)cc(C)c4)n[nH]c2-3)CC1 [Example A24-M2-B37] | – | – | – | – | – | – | 3000 nM | 2780 nM | 1150 nM | –
